Consider 17 compounds from patent US8859555B2, “Lysine Specific Demethylase-1 inhibitors and their use” (Oryzon Genomics S.A., priority 2009, dated 2014).

For test [1], the target named is T1, Human recombinant monoamine oxidase MAO-A (Homo sapiens, UniProt P21397).
T1 construct: purchased Sigma Aldrich
T1 sequence (P21397 1-527): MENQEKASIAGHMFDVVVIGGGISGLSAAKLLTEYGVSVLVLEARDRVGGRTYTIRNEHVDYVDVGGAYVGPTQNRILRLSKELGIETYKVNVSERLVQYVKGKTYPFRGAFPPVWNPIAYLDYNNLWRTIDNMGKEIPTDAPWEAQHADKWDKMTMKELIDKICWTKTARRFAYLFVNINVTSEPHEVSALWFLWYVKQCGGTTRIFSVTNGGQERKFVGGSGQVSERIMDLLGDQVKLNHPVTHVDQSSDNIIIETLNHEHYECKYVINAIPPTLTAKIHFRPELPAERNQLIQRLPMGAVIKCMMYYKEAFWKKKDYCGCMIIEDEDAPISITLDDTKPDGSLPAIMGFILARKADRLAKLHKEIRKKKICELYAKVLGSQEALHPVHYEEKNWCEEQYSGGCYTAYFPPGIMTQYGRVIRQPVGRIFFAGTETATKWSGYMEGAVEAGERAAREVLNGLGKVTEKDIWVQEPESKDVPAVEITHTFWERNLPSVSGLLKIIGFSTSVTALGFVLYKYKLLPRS
The test can be described thus: MAO-A kynuramine fluorescence inhibition assay. The test is classed as biochemical.
Excerpt: (§1) Human recombinant monoamine oxidase proteins MAO-A and MAO-B were purchased from Sigma Aldrich. […] In order to monitor MAO enzymatic activities and/or their inhibition rate by inhibitor(s) of interest, a fluorescent-based (inhibitor)-screening assay was set up. 3-(2-Aminophenyl)-3-oxopropanamine (kynuramine dihydrobromide, Sigma Aldrich), a non fluorescent compound was chosen as a substrate. Kynuramine is a non-specific substrate for both MAOs activities. While undergoing oxidative deamination by MAO activities, kynuramine is converted into 4-hydroxyquinoline (4-HQ), a resulting fluorescent product.
(§2) The monoamine oxidase activity was estimated by measuring the conversion of kynuramine into 4-hydroxyquinoline. Assays were conducted in 96-well black plates with clear bottom (Corning) in a final volume of 100 μL. The assay buffer was 100 mM HEPES, pH 7.5. Each experiment was performed in triplicate within the same experiment.
(§3) Briefly, a fixed amount of MAO (0.25 μg for MAO-A and 0.5 μg for MAO-B) was incubated on ice for 15 minutes in the reaction buffer, in the absence and/or in the presence of various concentrations of inhibitor (e.g., from 0 to 50 μM, depending on the inhibitor strength).
(§4) After leaving the enzyme(s) interacting with the inhibitor, 60 to 90 μM of kynuramine was added to each reaction for MAO-B and MAO-A assay respectively, and the reaction was left for 1 hour at 37° C. in the dark. The oxidative deamination of the substrate was stopped by adding 50 μL (v/v) of NaOH 2N. The conversion of kynuramine to 4-hydroxyquinoline, was monitored by fluorescence (excitation at 320 nm, emission at 360 nm) using a microplate reader (Infinite 200, Tecan). Arbitrary units were used to measure levels of fluorescence produced in the absence and/or in the presence of inhibitor.
(§5) The Ki of each inhibitor was measure at Vmax/2.

In test [2] the target is T2, Human recombinant monoamine oxidase MAO-B (Homo sapiens, UniProt P27338).
T2 construct: purchased Sigma Aldrich
T2 sequence (P27338 1-520): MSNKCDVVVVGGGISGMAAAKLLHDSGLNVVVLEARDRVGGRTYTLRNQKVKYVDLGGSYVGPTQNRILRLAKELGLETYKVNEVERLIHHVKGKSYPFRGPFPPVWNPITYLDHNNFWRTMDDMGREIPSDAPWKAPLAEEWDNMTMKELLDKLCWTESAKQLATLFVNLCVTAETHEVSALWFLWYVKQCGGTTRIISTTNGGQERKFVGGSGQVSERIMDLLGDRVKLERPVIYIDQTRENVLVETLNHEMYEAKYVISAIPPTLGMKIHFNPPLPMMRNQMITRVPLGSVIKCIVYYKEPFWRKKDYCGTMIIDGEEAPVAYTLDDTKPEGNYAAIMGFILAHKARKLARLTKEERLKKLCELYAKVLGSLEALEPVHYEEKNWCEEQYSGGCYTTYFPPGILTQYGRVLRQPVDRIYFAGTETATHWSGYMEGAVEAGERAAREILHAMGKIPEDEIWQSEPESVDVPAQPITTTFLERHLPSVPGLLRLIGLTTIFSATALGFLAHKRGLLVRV
Nature of the test: MAO-B kynuramine fluorescence inhibition assay. The following applies: Ki range class. Format: biochemical.
Excerpt: as §1, §2, §3, §4, §5

Test [3] has as its target T3, Human recombinant LSD1 protein (Homo sapiens, UniProt O60341).
T3 construct: purchased BPS Bioscience Inc
Nature of the test: LSD1 inhibition, Amplex Red peroxide/peroxidase-coupled demethylase assay. Format: biochemical. The note with it: for Ki: Ki range class.
Excerpt: Human recombinant LSD1 protein was purchased from BPS Bioscience Inc. In order to monitor LSD1 enzymatic activity and/or its inhibition rate by our inhibitor(s) of interest, di-methylated H3-K4 peptide (Millipore) was chosen as a substrate. The demethylase activity was estimated, under aerobic conditions, by measuring the release of H2O2 produced during the catalytic process, using the Amplex® Red peroxide/peroxidase-coupled assay kit (Invitrogen).
Within the experiment, each concentration of inhibitor was tested in triplicate. […] The enzymatic reactions were set up in a 50 mM sodium phosphate, pH 7.4 buffer. At the end of the incubation, Amplex® Red reagent and horseradish peroxidase (HPR) solution were added to the reaction according to the recommendations provided by the supplier (Invitrogen), and left to incubate for 30 extra minutes at room temperature in the dark. A 1 μM H2O2 solution was used as a control of the kit efficiency. The conversion of the Amplex® Red reagent to resorufin due to the presence of H2O2 in the assay, was monitored by fluorescence (excitation at 540 nm, emission at 590 nm) using a microplate reader (Infinite 200, Tecan). Arbitrary units were used to measure level of H2O2 produced in the absence and/or in the presence of inhibitor.
The maximum demethylase activity of LSD1 was obtained in the absence of inhibitor and corrected for background fluorescence in the absence of LSD1. The Ki of each inhibitor was estimated at half of the maximum activity.

The test system of test [4] is human colon cancer cell line HCT116. Nature of the test: Cancer cell line study, alamarBlue viability assay. Format: cell-based. The following applies: HCT-116, dose required to inhibit cell growth by 50%, 72 hours, read-out: EC50 value for HCT-116 cells. As for the experimental part: The human colon cancer cell line HCT116 was obtained from the American Type Culture Collection (ATCC; CCL-247). The HCT116 cell line was maintained in DMEM GlutaMAX (Invitrogen) supplemented with 10% fetal calf serum. Cells were grown in a humidified incubator at 37 C in 5% CO2. Cells were plated in 96-well plates at a density of 6000 cells/well in 100 μl medium 24 h before addition of drugs. They were then added in concentrations from 100 μM to 0.45 nM (each concentration in triplicate). To do so, a drugs-dilution plate at twice the screening concentrations was prepared. 72 hours later, alamarBlue (Biosource, Invitrogen) viability assay was performed following manufacturer's protocol. In brief, alamarBlue diluted in media was added to cells to have a 5% solution. Cells were incubated at 37 C, 3 hours and at room temperature, 30 min. Cells with no drug and, cells with no drug and lysed with triton X-100 were used as controls. Fluorescence was monitored at 530 nm excitation and 590 nm emission wavelengths. Results were quantified using Infinite F200 Microplate Reader (Tecan Group, Ltd.). EC50 were calculated as the dose of drugs required to inhibit cell growth by 50%, with Origin 7.0 computer program.
Background: Alamar Blue is a resazurin reagent that responds to reducing activity.

The mark [5] stands for this setting: Ki range class, read-out: MAO A (Ki).

Structures can show the parent of a compound that is named as a salt. Where two headings read alike, the source gives them in different places.

In the case of `CN1CCN(CCN[C@@H]2C[C@H]2c2ccccc2)CC1` (relative stereo) [Example 1, N-[2-(4-methylpiperazin-1-yl)ethyl]-N-[(trans)-2-phenylcyclopropyl]amine dihydrochloride salt], the Ki (in general, a measure of affinity in units of concentration, obtained from inhibition or displacement) in test [1] (setting [5]) is over 40 µM; in test [2], 1 to 40 µM; in test [3], 0.001 to 0.1 µM.
For the compound `c1ccc([C@@H]2C[C@H]2NCCNC2CC2)cc1` (relative stereo) [Example 2, N-cyclopropyl-N′-[(trans)-2-phenylcyclopropyl]ethane-1,2-diamine dihydrochloride salt], the Ki in test [1] (setting [5]) is 1 to 40 µM; in test [2], 0.1 to 1 µM; in test [3] it was 0.1 to 1 µM.
Take `CN(C)CCNCCN[C@@H]1C[C@H]1c1ccccc1` (relative stereo) [Example 3, N,N-dimethyl-N′-(2-{[(trans)-2-phenylcyclopropyl]amino}ethyl)ethane-1,2-diamine]: the inhibition constant (Ki) is over 40 µM in test [1] (setting [5]), 1 to 40 µM in test [2] and 0.1 to 1 µM in test [3].
On to `Cl.Cl.c1ccc([C@@H]2C[C@H]2NCCN2CCNCC2)cc1` (relative stereo) [Example 7, N-[(trans)-2-phenylcyclopropyl]-N-(2-piperazin-1-ylethyl)amine dihydrochloride salt], for which the Ki is about 40 µM in test [1] (Ki (IC50), in these assays described herein, read-out: Ki for MAO-A); over 40 µM in test [2]; 0.001 to 0.1 µM in test [3]. For the same compound, the “MAO A (Ki)” value in test [1] (Ki range class) was “I, II”.
With `CCN(CC)CCN[C@@H]1C[C@H]1c1ccccc1` (relative stereo) [Example 8, N1,N1-diethyl-N2-((trans)-2-phenylcyclopropyl)ethane-1,2-diamine dihydrochloride salt], the Ki was 1 to 40 µM in test [1] (setting [5]), over 40 µM in test [2] and 0.001 to 0.1 µM in test [3].
In the case of `c1ccc([C@@H]2C[C@H]2NCCN2CCCCC2)cc1` (relative stereo) [Example 9, N-[(trans)-2-phenylcyclopropyl]-N-(2-piperidin-1-ylethyl)amine], the figures for the Ki in test [1] (setting [5]), in test [2] and in test [3] were over 40 µM, 1 to 40 µM and 0.001 to 0.1 µM, respectively.
Regarding `CN1CCN(CCN[C@@H]2C[C@H]2c2ccc(OCc3ccccc3)cc2)CC1` (relative stereo) [Example 10, (trans)-2-(4-(benzyloxy)phenyl)-N-(2-(4-methylpiperazin-1-yl)ethyl)cyclopropanamine dihydrochloride salt], the Ki is 1 to 40 µM in test [1] (setting [5]), 1 to 40 µM in test [2] and 0.001 to 0.1 µM in test [3]. Further, the EC50 (as a rule, the concentration needed to bring the measured effect to its halfway point) in test [4] was about 11 µM.
`CN1CCN(CCN[C@@H]2C[C@H]2c2ccc(-c3cccc(C(F)(F)F)c3)cc2)CC1` (relative stereo) [Example 11, (Trans)-N-(2-(4-methylpiperazin-1-yl)ethyl)-2-(3′-(trifluoromethyl)biphenyl-4-yl)cyclopropanamine dihydrochloride]: the Ki was in the range of 1 to 40 µM in test [1] (setting [5]), 1 to 40 µM in test [2] and 0.001 to 0.1 µM in test [3].
Regarding `CN1CCN(CCN[C@@H]2C[C@H]2c2ccc(-c3cccc(Cl)c3)cc2)CC1` (relative stereo) [Example 12, (Trans)-2-(3′-chlorobiphenyl-4-yl)-N-(2-(4-methylpiperazin-1-yl)ethyl)cyclopropanamine dihydrochloride], the inhibition constant Ki in test [2] fell in the range of 1 to 40 µM; in test [3] it was 0.001 to 0.1 µM.
As to `FC(F)(F)c1cccc(-c2ccc([C@@H]3C[C@H]3NCCNC3CC3)cc2)c1` (relative stereo) [Example 14, N^1-cyclopropyl-N^2-((trans)-2-(3′-(trifluoromethyl)biphenyl-4-yl)cyclopropyl)ethane-1,2-diamine], the Ki in test [1] (setting [5]) lay in the range of 1 to 40 µM; in test [3] it was 0.1 to 1 µM. The “MAO B (Ki)” value in test [2] was “II, I II”.
As to `CC(C)CSCCN[C@@H]1C[C@H]1c1ccccc1` (relative stereo) [Example 15, N-(trans)-2-(isobutylthio)-ethyl-2-phenylcyclopropanamine hydrochloride], the Ki lay in the range of 1 to 40 µM in test [1] (setting [5]), 1 to 40 µM in test [2] and 0.1 to 1 µM in test [3].
In the case of `CCOCCN[C@@H]1C[C@H]1c1ccccc1` (relative stereo) [Example 16, N-trans-(2-ethoxyethyl)-2-phenylcyclopropanamine hydrochloride], the Ki is 1 to 40 µM in test [1] (setting [5]), 1 to 40 µM in test [2] and 0.1 to 1 µM in test [3].
Take `COCCN[C@@H]1C[C@H]1c1ccccc1` (relative stereo) [Example 17, N-trans-(2-methoxyethyl)-2-phenylcyclopropanamine hydrochloride]: the values for the Ki in test [1] (setting [5]), in test [2] and in test [3] were 1 to 40 µM, 1 to 40 µM and 0.1 to 1 µM, respectively.
`Cl.Cl.N[C@@H]1CCN(CCN[C@H]2CC2c2ccccc2)C1` (stereo partly drawn) [Example 4, (3R)-1-(2-{[(trans)-2-phenylcyclopropyl]amino}ethyl)pyrrolidin-3-amine dihydrochloride salt]: the Ki in test [1] (setting [5]) is over 40 µM; in test [2] it was over 40 µM; in test [3], 0.001 to 0.1 µM. Also, in test [3] (selectivity LSD1 versus MAO-A and MAO-B), the “Ki value for LSD1 lower than Ki values for MAO-A and MAO-B” value is given as “more than 100 fold”.
With `CN(C)[C@H]1CCN(CCN[C@H]2CC2c2ccccc2)C1` (stereo partly drawn) [Example 5, (3S)—N,N-dimethyl-1-(2-{[(trans)-2-phenylcyclopropyl]amino}ethyl)pyrrolidin-3-amine dihydrochloride salt], the inhibitory constant (Ki) in test [1] (setting [5]) and in test [2] was over 40 µM throughout.
In the case of `CN(C)[C@@H]1CCN(CCN[C@H]2CC2c2ccccc2)C1` (stereo partly drawn) [Example 6, (3R)—N,N-dimethyl-1-(2-{[(trans)-2-phenylcyclopropyl]amino}ethyl)pyrrolidin-3-amine], the inhibition constant Ki in test [1] (setting [5]) and in test [2] was 1 to 40 µM throughout.
Consider `N[C@@H]1CCN(CCN[C@H]2CC2c2ccc(-c3cccc(C(F)(F)F)c3)cc2)C1` (stereo partly drawn) [Example 13, (R)-1-(2-((trans)-2-(3′-(trifluoromethyl)biphenyl-4-yl)cyclopropylamino)ethyl)pyrrolidin-3-amine dihydrochloride], for which the values for the inhibition constant (Ki) in test [1] (setting [5]), in test [2] and in test [3] were 1 to 40 µM, 1 to 40 µM and 0.001 to 0.1 µM, respectively.
